In the kinase profiling compilation of Christmann-Franck et al. (2016):

Tests used:
Assay in all cases: radiometric filter-binding kinase assay, Kinaseprofiler
[1] = target: CDK3 CCNE1 (human) (UniProt Q00526+P24864); settings: ATP 200 µM
[2] = target: FYN (human) (UniProt P06241); settings: ATP 70 µM
[3] = target: HIPK3 (human) (UniProt Q9H422); settings: ATP 15 µM
[4] = target: STK17A (human) (UniProt Q9UEE5); settings: ATP 10 µM
[5] = target: JAK3 JH1 catalytic (human) (UniProt P52333); settings: ATP 10 µM
[6] = target: DAPK2 (human) (UniProt Q9UIK4); settings: ATP 10 µM
[7] = target: LYN (human) (UniProt P07948); settings: ATP 70 µM
[8] = target: WNK2 (human) (UniProt Q9Y3S1); settings: ATP 200 µM
[9] = target: BRSK1 (human) (UniProt Q8TDC3); settings: ATP 200 µM
[10] = target: NTRK2 (human) (UniProt Q16620); settings: ATP 90 µM
[11] = target: CAMK2D (human) (UniProt Q13557); settings: ATP 10 µM
[12] = target: EPHA7 (human) (UniProt Q15375); settings: ATP 90 µM
[13] = target: ULK3 (human) (UniProt Q6PHR2); settings: ATP 10 µM
[14] = target: ITK (human) (UniProt Q08881); settings: ATP 200 µM
[15] = target: FRK (human) (UniProt P42685); settings: ATP 155 µM
[16] = target: LIMK1 (human) (UniProt P53667); settings: ATP 15 µM
[17] = target: ABL2 (human) (UniProt P42684); settings: ATP 45 µM
[18] = target: KIT (human) (UniProt P10721); settings: ATP 200 µM
[19] = target: TSSK2 (human) (UniProt Q96PF2); settings: ATP 15 µM
[20] = target: FGFR2 (human) (UniProt P21802); settings: ATP 90 µM
[21] = target: MAP3K5 (human) (UniProt Q99683); settings: ATP 200 µM
[22] = target: MAPK3 (human) (UniProt P27361); settings: ATP 70 µM
[23] = target: CSNK2A2 (human) (UniProt P19784); settings: ATP 10 µM
[24] = target: PRKCE (human) (UniProt Q02156); settings: ATP 45 µM
[25] = target: AURKC (human) (UniProt Q9UQB9); settings: ATP 15 µM
[26] = target: PRKCG (human) (UniProt P05129); settings: ATP 15 µM
[27] = target: TXK (human) (UniProt P42681); settings: ATP 200 µM
[28] = system: CSNK1D (rat); settings: accession and sequence are those of the human protein
[29] = target: CSNK1G1 (human) (UniProt Q9HCP0); settings: ATP 15 µM
[30] = target: PTK2 (human) (UniProt Q05397); settings: ATP 70 µM
[31] = target: PASK (human) (UniProt Q96RG2); settings: ATP 15 µM
[32] = target: TSSK1B (human) (UniProt Q9BXA7); settings: ATP 15 µM
[33] = target: DCLK2 (human) (UniProt Q8N568); settings: ATP 90 µM
DCLK2 (human), sequence (Q8N568 whole entry, looked up): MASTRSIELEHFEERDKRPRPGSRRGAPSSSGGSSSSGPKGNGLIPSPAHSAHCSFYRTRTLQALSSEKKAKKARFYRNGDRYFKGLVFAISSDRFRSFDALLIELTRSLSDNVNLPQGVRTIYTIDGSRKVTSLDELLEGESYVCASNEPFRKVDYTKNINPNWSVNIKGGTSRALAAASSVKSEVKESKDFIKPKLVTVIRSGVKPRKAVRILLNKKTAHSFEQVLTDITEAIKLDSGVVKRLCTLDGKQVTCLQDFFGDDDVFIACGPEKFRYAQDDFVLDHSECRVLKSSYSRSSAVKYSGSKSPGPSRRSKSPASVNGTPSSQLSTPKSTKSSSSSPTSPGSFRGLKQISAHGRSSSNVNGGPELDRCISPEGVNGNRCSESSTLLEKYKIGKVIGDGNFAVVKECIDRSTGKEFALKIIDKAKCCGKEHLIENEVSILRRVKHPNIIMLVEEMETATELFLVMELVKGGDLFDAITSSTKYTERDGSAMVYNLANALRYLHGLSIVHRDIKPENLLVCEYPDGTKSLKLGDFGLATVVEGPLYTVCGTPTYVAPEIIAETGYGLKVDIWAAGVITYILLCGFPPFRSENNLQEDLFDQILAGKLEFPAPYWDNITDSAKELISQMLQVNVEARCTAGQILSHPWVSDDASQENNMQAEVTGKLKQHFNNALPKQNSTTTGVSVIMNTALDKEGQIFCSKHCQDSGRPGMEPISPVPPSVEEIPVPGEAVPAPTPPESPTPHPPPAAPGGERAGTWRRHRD

EPHA7 (human), sequence (Q15375 whole entry, looked up): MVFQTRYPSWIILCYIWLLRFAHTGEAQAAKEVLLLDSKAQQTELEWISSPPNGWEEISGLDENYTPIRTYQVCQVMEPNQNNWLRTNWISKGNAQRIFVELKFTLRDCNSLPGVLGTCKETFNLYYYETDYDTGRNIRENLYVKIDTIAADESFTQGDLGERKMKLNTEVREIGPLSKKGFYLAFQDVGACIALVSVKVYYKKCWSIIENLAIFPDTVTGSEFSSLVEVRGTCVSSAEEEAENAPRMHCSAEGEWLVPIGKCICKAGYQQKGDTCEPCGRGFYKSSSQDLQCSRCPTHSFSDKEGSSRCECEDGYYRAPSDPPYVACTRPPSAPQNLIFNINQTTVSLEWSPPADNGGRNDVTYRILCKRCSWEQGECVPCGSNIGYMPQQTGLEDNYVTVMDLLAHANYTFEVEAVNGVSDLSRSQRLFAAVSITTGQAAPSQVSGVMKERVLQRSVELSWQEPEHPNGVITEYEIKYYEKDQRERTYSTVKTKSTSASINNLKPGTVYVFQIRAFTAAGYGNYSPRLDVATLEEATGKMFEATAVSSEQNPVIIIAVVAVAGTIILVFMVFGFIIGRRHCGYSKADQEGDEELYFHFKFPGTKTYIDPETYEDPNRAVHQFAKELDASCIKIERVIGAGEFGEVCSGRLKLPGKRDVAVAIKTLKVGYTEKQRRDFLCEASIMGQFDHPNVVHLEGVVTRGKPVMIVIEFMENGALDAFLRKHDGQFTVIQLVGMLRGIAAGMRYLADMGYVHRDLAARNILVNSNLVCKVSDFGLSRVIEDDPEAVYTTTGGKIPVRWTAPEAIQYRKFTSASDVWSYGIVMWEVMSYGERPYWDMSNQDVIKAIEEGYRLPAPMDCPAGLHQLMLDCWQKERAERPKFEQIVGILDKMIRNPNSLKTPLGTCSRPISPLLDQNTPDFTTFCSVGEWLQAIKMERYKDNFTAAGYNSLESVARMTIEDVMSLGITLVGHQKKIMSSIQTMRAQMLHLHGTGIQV
ITK (human), sequence (Q08881 whole entry, looked up): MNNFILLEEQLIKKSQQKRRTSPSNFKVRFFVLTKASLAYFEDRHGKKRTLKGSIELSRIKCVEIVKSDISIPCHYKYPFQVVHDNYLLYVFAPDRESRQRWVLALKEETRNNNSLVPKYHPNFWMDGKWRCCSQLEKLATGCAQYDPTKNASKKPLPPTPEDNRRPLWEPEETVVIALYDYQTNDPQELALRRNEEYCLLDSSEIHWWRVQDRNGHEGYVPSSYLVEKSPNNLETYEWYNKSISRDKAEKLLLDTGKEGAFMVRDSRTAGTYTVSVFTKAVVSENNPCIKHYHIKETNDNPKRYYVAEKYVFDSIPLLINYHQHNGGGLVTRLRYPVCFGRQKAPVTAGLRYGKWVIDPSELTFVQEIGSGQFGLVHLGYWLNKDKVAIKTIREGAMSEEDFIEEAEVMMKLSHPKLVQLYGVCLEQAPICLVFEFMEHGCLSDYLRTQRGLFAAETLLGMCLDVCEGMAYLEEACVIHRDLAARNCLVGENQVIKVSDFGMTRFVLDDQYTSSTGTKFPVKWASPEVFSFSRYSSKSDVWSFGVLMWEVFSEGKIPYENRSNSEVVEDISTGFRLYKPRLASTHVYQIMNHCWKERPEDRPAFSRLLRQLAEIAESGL
LYN (human), sequence (P07948 whole entry, looked up): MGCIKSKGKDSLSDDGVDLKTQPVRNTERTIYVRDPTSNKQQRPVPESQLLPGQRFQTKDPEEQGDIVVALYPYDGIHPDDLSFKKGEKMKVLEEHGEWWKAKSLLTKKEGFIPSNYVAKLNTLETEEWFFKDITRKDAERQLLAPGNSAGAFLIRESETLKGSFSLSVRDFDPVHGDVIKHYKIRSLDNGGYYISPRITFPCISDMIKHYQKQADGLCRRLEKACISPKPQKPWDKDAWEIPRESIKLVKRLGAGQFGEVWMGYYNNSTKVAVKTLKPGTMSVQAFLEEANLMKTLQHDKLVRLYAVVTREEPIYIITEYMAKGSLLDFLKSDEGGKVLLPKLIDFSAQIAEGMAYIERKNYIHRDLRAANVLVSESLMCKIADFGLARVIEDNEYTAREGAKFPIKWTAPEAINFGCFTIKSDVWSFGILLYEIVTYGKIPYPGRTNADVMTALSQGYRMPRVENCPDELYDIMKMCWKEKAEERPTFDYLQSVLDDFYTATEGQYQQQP
FYN (human), sequence (P06241 whole entry, looked up): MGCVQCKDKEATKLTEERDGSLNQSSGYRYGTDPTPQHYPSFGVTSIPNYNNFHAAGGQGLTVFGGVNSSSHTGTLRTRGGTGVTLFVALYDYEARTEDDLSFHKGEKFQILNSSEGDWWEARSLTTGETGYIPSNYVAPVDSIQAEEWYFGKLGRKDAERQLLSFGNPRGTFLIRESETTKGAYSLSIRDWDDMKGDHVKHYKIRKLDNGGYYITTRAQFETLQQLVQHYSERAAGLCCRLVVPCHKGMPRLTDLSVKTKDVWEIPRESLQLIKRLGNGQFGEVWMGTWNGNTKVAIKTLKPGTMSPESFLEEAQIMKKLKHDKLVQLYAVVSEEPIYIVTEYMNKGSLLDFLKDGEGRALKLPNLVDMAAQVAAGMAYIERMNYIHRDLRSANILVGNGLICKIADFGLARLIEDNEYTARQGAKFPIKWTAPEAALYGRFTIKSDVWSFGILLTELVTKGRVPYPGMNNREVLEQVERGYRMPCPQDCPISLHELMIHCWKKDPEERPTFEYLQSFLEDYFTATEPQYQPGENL
TSSK2 (human), sequence (Q96PF2 whole entry, looked up): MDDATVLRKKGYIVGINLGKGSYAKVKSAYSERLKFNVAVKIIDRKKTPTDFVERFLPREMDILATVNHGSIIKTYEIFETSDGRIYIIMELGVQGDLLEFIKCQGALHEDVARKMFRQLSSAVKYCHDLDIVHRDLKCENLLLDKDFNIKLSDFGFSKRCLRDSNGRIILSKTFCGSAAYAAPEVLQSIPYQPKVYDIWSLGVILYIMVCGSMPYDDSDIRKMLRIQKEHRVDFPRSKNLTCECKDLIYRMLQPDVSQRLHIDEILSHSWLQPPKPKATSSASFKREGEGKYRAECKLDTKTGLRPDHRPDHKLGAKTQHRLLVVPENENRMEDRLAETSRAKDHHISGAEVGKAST
LIMK1 (human), sequence (P53667 whole entry, looked up): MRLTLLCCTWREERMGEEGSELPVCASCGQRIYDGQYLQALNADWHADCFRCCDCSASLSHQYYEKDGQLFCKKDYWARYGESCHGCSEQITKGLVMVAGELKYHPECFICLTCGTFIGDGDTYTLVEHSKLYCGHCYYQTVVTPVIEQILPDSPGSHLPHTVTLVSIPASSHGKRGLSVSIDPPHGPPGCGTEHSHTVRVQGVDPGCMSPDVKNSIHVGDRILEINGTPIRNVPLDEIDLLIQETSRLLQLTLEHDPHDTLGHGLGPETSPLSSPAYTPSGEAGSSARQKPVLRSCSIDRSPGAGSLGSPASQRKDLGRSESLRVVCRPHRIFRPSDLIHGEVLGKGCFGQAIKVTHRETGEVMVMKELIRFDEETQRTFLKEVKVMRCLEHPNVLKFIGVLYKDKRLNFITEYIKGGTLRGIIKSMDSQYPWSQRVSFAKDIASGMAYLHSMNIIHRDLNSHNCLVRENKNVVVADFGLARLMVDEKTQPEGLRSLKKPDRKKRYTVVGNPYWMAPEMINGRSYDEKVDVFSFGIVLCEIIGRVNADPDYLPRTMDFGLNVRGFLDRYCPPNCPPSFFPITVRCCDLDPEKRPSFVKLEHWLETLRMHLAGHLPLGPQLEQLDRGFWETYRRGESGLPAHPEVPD
CSNK2A2 (human), sequence (P19784 whole entry, looked up): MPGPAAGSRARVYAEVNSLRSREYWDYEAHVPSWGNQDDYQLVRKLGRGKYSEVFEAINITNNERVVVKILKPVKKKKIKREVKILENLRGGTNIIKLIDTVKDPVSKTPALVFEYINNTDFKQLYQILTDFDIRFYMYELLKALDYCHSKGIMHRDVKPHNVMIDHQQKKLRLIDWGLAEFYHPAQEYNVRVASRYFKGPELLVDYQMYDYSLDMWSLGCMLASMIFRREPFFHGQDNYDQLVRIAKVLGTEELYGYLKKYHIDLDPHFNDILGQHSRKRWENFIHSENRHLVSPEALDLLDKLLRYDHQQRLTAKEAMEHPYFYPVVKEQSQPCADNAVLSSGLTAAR

residual activity ([1]; compound 1.0 µM): 26%
residual activity ([1]; compound 10.0 µM): 14%
residual activity ([2]; compound 1.0 µM): 60%
residual activity ([2]; compound 10.0 µM): 47%
residual activity ([3]; compound 1.0 µM): 73%
residual activity ([3]; compound 10.0 µM): 19%
residual activity ([4]; compound 1.0 µM): 6%
residual activity ([4]; compound 10.0 µM): 2%
residual activity ([5]; compound 1.0 µM): 57%
residual activity ([5]; compound 10.0 µM): 9%
residual activity ([6]; compound 1.0 µM): 87%
residual activity ([6]; compound 10.0 µM): 43%
residual activity ([7]; compound 1.0 µM): 70%
residual activity ([7]; compound 10.0 µM): 30%
residual activity ([8]; compound 1.0 µM): 79%
residual activity ([8]; compound 10.0 µM): 77%
residual activity ([9]; compound 1.0 µM): 38%
residual activity ([9]; compound 10.0 µM): 29%
residual activity ([10]; compound 1.0 µM): 32%
residual activity ([10]; compound 10.0 µM): 5%
residual activity ([11]; compound 1.0 µM): 43%
residual activity ([11]; compound 10.0 µM): 8%
residual activity ([12]; compound 1.0 µM): 80%
residual activity ([12]; compound 10.0 µM): 41%
residual activity ([13]; compound 1.0 µM): 73%
residual activity ([13]; compound 10.0 µM): 43%
residual activity ([14]; compound 1.0 µM): 67%
residual activity ([14]; compound 10.0 µM): 21%
residual activity ([15]; compound 1.0 µM): 91%
residual activity ([15]; compound 10.0 µM): 58%
residual activity ([16]; compound 1.0 µM): 64%
residual activity ([16]; compound 10.0 µM): 30%
residual activity ([17]; compound 1.0 µM): 87%
residual activity ([17]; compound 10.0 µM): 72%
residual activity ([18]; compound 1.0 µM): 91%
residual activity ([18]; compound 10.0 µM): 30%
residual activity ([19]; compound 1.0 µM): 92%
residual activity ([19]; compound 10.0 µM): 86%
residual activity ([20]; compound 1.0 µM): 52%
residual activity ([20]; compound 10.0 µM): 12%
residual activity ([21]; compound 1.0 µM): 36%
residual activity ([21]; compound 10.0 µM): 5%
residual activity ([22]; compound 1.0 µM): 59%
residual activity ([22]; compound 10.0 µM): 72%
residual activity ([23]; compound 1.0 µM): 59%
residual activity ([23]; compound 10.0 µM): 18%
residual activity ([24]; compound 1.0 µM): 101%
residual activity ([24]; compound 10.0 µM): 84%
residual activity ([25]; compound 1.0 µM): 9%
residual activity ([25]; compound 10.0 µM): 4%
residual activity ([26]; compound 1.0 µM): 73%
residual activity ([26]; compound 10.0 µM): 30%
residual activity ([27]; compound 1.0 µM): 58%
residual activity ([27]; compound 10.0 µM): 23%
residual activity ([28]; compound 1.0 µM): 5%
residual activity ([28]; compound 10.0 µM): 1%
residual activity ([29]; compound 1.0 µM): 99%
residual activity ([29]; compound 10.0 µM): 48%
residual activity ([30]; compound 1.0 µM): 52%
residual activity ([30]; compound 10.0 µM): 9%
residual activity ([31]; compound 1.0 µM): 125%
residual activity ([31]; compound 10.0 µM): 81%
residual activity ([32]; compound 1.0 µM): 75%
residual activity ([32]; compound 10.0 µM): 49%
residual activity ([33]; compound 1.0 µM): 116%
residual activity ([33]; compound 10.0 µM): 51%
SMILES: O=C1c2ccccc2-c2n[nH]c3cccc1c23
